Literature values in paper PMC6650409, “Modeling the binding of diverse ligands within the Ah receptor ligand binding domain” (Scientific Reports, 2019).

Tests used:
[1] = test system: zebrafish AhR1a (zfAhR1a); details: cited from earlier work
AhR = test system: AhR; design: method as in PMID 21981577; details: in words; cited from earlier work
mAhR = target: T1, mAhR (Mus musculus, UniProt P30561); design: method as in PMID 21981577; details: in words; cited from earlier work
T1 construct: made in house; host or cells: in vitro, Promega TNT Quick coupled transcription/translation rabbit reticulocyte lysate
T1 sequence (P30561 10-848): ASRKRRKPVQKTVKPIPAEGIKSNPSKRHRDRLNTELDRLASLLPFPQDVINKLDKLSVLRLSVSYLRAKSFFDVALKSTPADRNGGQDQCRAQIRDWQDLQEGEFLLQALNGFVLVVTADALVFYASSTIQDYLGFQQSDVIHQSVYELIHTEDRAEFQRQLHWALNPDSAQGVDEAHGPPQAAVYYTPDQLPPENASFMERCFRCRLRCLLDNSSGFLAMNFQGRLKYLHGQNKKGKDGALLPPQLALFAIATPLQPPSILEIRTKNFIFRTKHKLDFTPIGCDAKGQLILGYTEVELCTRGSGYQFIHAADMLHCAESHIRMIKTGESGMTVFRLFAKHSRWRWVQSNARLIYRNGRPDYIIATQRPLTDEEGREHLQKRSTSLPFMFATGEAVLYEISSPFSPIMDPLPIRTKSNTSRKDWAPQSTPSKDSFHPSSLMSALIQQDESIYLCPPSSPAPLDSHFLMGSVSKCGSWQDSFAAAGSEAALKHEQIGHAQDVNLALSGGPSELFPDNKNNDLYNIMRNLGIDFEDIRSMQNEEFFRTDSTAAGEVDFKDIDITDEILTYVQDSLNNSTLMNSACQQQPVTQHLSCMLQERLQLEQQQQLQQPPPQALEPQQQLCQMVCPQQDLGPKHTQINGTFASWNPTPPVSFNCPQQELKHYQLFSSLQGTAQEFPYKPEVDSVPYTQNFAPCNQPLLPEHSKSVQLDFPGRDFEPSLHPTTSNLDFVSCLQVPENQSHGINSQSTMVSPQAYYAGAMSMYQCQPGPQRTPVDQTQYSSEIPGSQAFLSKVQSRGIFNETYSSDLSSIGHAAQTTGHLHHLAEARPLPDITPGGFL

| SMILES | ligand binding to zfAhR1a [1] | AhR agonist activity (AhR) | displacement of [3H]TCDD specific binding to the mAhR (mAhR) |
| --- | --- | --- | --- |
| Cc1oncc1C(=O)Nc1ccc(C(F)(F)F)cc1 [LEFL, Leflunomide] | could still bind and be activated | – | – |
| O=[N+]([O-])c1cc(C(F)(F)F)ccc1NCc1ccsc1 [THS-017] | – | acted as AhR agonists | could competitively displace |
| O=[N+]([O-])c1cc(C(F)(F)F)ccc1NCc1ccco1 [THS-020] | – | acted as AhR agonists | could competitively displace |
